Measured values as given in patent publication US7776924B2, “Nitroaniline-based alkylating agents and their use as prodrugs” (Auckland Uniservices Limited, priority 2002, dated 2010).
Marks after values point to notes of the source that are not given here.

Assays:
Type in all cases: cell-based
[1] = tested on: SKOV3; assay: Cytotoxicity in wild-type (NR−) human ovarian cell line SKOV3
[2] = tested on: SC3.2; assay: Cytotoxicity in NTR-transfected (NR+) human ovarian cell line SC3.2; details: for IC50: SC3.2 NTR-transfected, 18 h exposure; for Ratio = IC50(NR−)/IC50(NR+) Human Ovarian: SKOV3 / SC3.2, 18 h exposure
[3] = tested on: WIDR; assay: Cytotoxicity in wild-type (NR−) human colon cell line WIDR
[4] = tested on: WC14.10; assay: Cytotoxicity in NTR-transfected (NR+) human colon cell line WC14.10; details: for IC50: WC14.10 NTR-transfected
[5] = tested on: A549 human lung carcinoma cells; assay: Cytotoxicity in oxic and anoxic wild-type A549 human lung carcinoma cells; details: 4 h exposure; for IC50: anoxic, read-out: IC50 WT anoxic
[6] = tested on: A549 transfected with human cytochrome P450 reductase (P450R); assay: Cytotoxicity in oxic and anoxic A549 cells transfected with human cytochrome P450 reductase; details: 4 h exposure; for IC50: anoxic
[7] = Homo sapiens, SK-OV-3, 18 h exposure

Compound | IC50 [1, 7] [µM] | IC50 ([2]; Homo sapiens) [µM] | Ratio = IC50(NR−)/IC50(NR+) Human Ovarian [2] | IC50 ([3]; Homo sapiens, 18 h exposure) [µM] | IC50 ([4]; Homo sapiens, 18 h exposure) [µM] | Ratio = IC50(NR−)/IC50(NR+) Human colon ([4]; WIDR / WC14.10, 18 h exposure) | IC50 ([1]; 18 h exposure) [µM] | IC50 [2] [µM] | IC50 ([3]; 18 h exposure) [µM] | IC50 ([4]; 18 h exposure) [µM] | WT Ratio = IC50(aerobic)/IC50(anoxic) [5] | IC50 [5] [µM] | P450R ratio = IC50(aerobic)/IC50(anoxic) [6] | IC50 [6] [µM] | IC50 ([3]; 4 h exposure) [µM] | IC50 ([4]; 4 h exposure) [µM] | Ratio = IC50(NR−)/IC50(NR+) Human colon ([4]; WIDR / WC14.10, 4 h exposure)
NC(=O)c1cc(N(CCCl)CCBr)c([N+](=O)[O-])cc1[N+](=O)[O-] [IIa2, 5-[(2-Bromoethyl)(2-chloroethyl)amino]-2,4-dinitrobenzamide] | 226 | 0.84 | 280 | 150 | 0.69 | 235 | – | – | – | – | – | – | – | – | – | – | –
CS(=O)(=O)OCCN(CCBr)c1cc(C(N)=O)c([N+](=O)[O-])cc1[N+](=O)[O-] [IIa3, 2-[5-(Aminocarbonyl)(2-bromoethyl)-2,4-dinitroanilino]ethyl methanesulfonate] | – | – | 715 | – | – | 387 | 135 | 0.19 | 80 | 0.22 | – | – | – | – | – | – | –
CS(=O)(=O)OCCN(CCI)c1cc(C(N)=O)c([N+](=O)[O-])cc1[N+](=O)[O-] [IIa4, 2-[5-(Aminocarbonyl)(2-iodoethyl)-2,4-dinitroanilino]ethyl methanesulfonate] | – | – | 311 | – | – | 172 | 97 | 0.33 | 70 | 0.41 | – | – | – | – | – | – | –
CS(=O)(=O)OCCN(CCBr)c1cc(C(=O)NCCO)c([N+](=O)[O-])cc1[N+](=O)[O-] [IIa5, 2-((2-Bromoethyl)5-{[(2-hydroxyethyl)amino]carbonyl}-2,4-dinitroanilino)ethyl methanesulfonate] | – | – | 470 | – | – | 250 | 286 | 0.61 | 192 | 0.77 | 5.2 | 139 | 9.9 | 73 | – | – | –
CS(=O)(=O)OCCN(CCBr)c1cc(C(=O)NCCCO)c([N+](=O)[O-])cc1[N+](=O)[O-] [IIa6, 2-((2-Bromoethyl)5-{[(3-hydroxypropyl)amino]carbonyl}-2,4-dinitroanilino)ethyl methanesulfonate] | – | – | – | – | – | 91 | – | – | 453 | 5 | 2.4 | 348 | 18 | 31 | – | – | –
CS(=O)(=O)OCCN(CCBr)c1cc(C(=O)NCC(O)CO)c([N+](=O)[O-])cc1[N+](=O)[O-] (stereo not shown) [IIa7, 2-((2-Bromoethyl)-5-{[(2,3-dihydroxypropyl)amino]carbonyl}-2,4-dinitroanilino)ethyl methanesulfonate] | – | – | – | – | – | 268 | 1110 | 1.74 | 804 | 3 | – | – | – | – | – | – | –
CS(=O)(=O)OCCN(CCCl)c1c(C(N)=O)cc([N+](=O)[O-])cc1[N+](=O)[O-] [IIb1, 2-[2-(Aminocarbonyl)(2-chloroethyl)-4,6-dinitroanilino]ethyl methanesulfonate] | – | – | 1890 | – | – | 303 | 80 | 0.04 | 20 | 0.07 | – | – | – | – | – | – | –
CS(=O)(=O)OCCN(CCBr)c1c(C(N)=O)cc([N+](=O)[O-])cc1[N+](=O)[O-] [IIb2, 2-[2-(Aminocarbonyl)(2-bromoethyl)-4,6-dinitroanilino]ethyl methanesulfonate] | – | – | 762 | – | – | 227 | 6 | 0.007 | 4.3 | 0.02 | – | – | – | – | – | – | –
CS(=O)(=O)OCCN(CCI)c1c(C(=O)NCCO)cc([N+](=O)[O-])cc1[N+](=O)[O-] [IIb4, 2-((2-Iodoethyl)-2-{[(2-hydroxyethyl)amino]carbonyl}-4,6-dinitroanilino)ethyl methanesulfonate] | – | – | – | – | – | – | – | – | – | – | 7 | 4.5 | 95 | 0.45 | 9 | 0.29 | 31^f
CC(O)CNC(=O)c1cc([N+](=O)[O-])cc([N+](=O)[O-])c1N(CCBr)CCOS(C)(=O)=O (stereo not shown) [IIb5, 2-((2-Bromoethyl)-2-{[(2-hydroxypropyl)amino]carbonyl}-4,6-dinitroanilino)ethyl methanesulfonate] | – | – | – | – | – | – | – | – | – | – | 19 | 4 | 150 | 0.34 | 2.9 | 0.25 | 12^f
CS(=O)(=O)OCCN(CCBr)c1c(C(=O)NCC(O)CO)cc([N+](=O)[O-])cc1[N+](=O)[O-] (stereo not shown) [IIb6, 2-((2-Bromoethyl)-2-{[(2,3-dihydroxypropyl)amino]carbonyl}-4,6-dinitroanilino)ethyl methanesulfonate] | – | – | 140 | – | – | 52 | 26 | 0.19 | 11 | 0.21 | – | – | – | – | – | – | –
CS(=O)(=O)OCCN(CCBr)c1c(C(=O)NCCCN2CCOCC2)cc([N+](=O)[O-])cc1[N+](=O)[O-] [IIb7, 2-[(2-Bromoethyl)-2-({[3-(4-morpholinyl)propyl]amino}carbonyl)-4,6-dinitroanilino]ethyl methanesulfonate] | – | – | 102 | – | – | 22 | 3.1 | 0.03 | 0.89 | 0.05 | – | – | – | – | – | – | –
COC(=O)CCNC(=O)c1cc([N+](=O)[O-])cc([N+](=O)[O-])c1N(CCBr)CCOS(C)(=O)=O [IIb9, Methyl 3-{[2-((2-bromoethyl){2-[(methylsulfonyl)oxy]ethyl}amino)-3,5-dinitrobenzoyl]amino}propanoate] | 3.7 | 0.15 | 25 | 1.44 | 0.24 | 6.3 | – | – | – | – | – | – | – | – | – | – | –
CS(=O)(=O)OCCN(CCCl)c1ccc([N+](=O)[O-])c(C(N)=O)c1[N+](=O)[O-] [IIc1, 2-[3-(Aminocarbonyl)(2-chloroethyl)-2,4-dinitroanilino]ethyl methanesulfonate] | – | – | 390 | – | – | 120 | 196 | 0.55 | 121 | 1 | – | – | – | – | – | – | –
CS(=O)(=O)OCCN(CCBr)c1c([N+](=O)[O-])ccc(C(N)=O)c1[N+](=O)[O-] [IIc2, 2-[3-(Aminocarbonyl)(2-bromoethyl)-2,6-dinitroanilino]ethyl methanesulfonate] | – | – | 724 | – | – | 271 | 150 | 0.21 | 85 | 0.31 | – | – | – | – | – | – | –
CS(=O)(=O)OCCN(CCBr)c1c([N+](=O)[O-])ccc(C(=O)NCCO)c1[N+](=O)[O-] [IIc3, 2-((2-Bromoethyl)-3-{[(2-hydroxyethyl)amino]carbonyl}-2,6-dinitroanilino)ethyl methanesulfonate] | – | – | – | – | – | – | – | – | – | – | 20 | 28 | 146 | 2.9 | 425 | 5.1 | 83^f
CS(=O)(=O)OCCN(CCBr)c1c([N+](=O)[O-])ccc(C(=O)NCCCCO)c1[N+](=O)[O-] [IIc6, 2-((2-Bromoethyl)-3-{[(4-hydroxybutyl)amino]carbonyl}-2,6-dinitroanilino)ethyl methanesulfonate] | – | – | – | – | – | – | – | – | – | – | – | – | – | – | 314 | 20 | 16^f
CS(=O)(=O)OCCN(CCCl)c1ccc([N+](=O)[O-])c(C(=O)NCC(O)CO)c1[N+](=O)[O-] (stereo not shown) [IIc7, 2-((2-Chloroethyl)-3-{[(2,3-dihydroxypropyl)amino]carbonyl}-2,4-dinitroanilino)ethyl methanesulfonate] | – | – | 267 | – | – | 262 | 1680 | 6.6 | 856 | 4.3 | – | – | – | – | – | – | –
CS(=O)(=O)OCCN(CCBr)c1ccc([N+](=O)[O-])c(C(=O)NCC(O)CO)c1[N+](=O)[O-] (stereo not shown) [IIc8, 2-((2-Bromoethyl)-3-{[(2,3-dihydroxypropyl)amino]carbonyl}-2,4-dinitroanilino)ethyl methanesulfonate] | – | – | 509 | – | – | 141 | 890 | 1.8 | 214 | 1.5 | – | – | – | – | – | – | –
CS(=O)(=O)OCCN(CCCl)c1ccc([N+](=O)[O-])c(C(=O)NCCCN2CCOCC2)c1[N+](=O)[O-] [IIc9, 2-[(2-Chloroethyl)-3-({[3-(4-morpholinyl)propyl]amino}carbonyl)-2,4-dinitroanilino]ethyl methanesulfonate] | – | – | 14 | – | – | 8.3 | 433 | 32 | 262 | 31 | – | – | – | – | – | – | –
CS(=O)(=O)OCCN(CCBr)c1ccc([N+](=O)[O-])c(C(=O)NCCCN2CCOCC2)c1[N+](=O)[O-] [IIc10, 2-[(2-Bromoethyl)-3-({[3-(4-morpholinyl)propyl]amino}carbonyl)-2,4-dinitroanilino]ethyl methanesulfonate] | – | – | 14 | – | – | 8.2 | 156 | 11 | 94 | 11 | – | – | – | – | – | – | –
